Experimental findings from ChEMBL document CHEMBL4020738, “Antioxidant and anticholinesterase potential of diterpenoid alkaloids from Aconitum heterophyllum” (Bioorg Med Chem, 2017) are described below.

In general, inhibition refers to the percentage by which the read-out fell short of the control. As usually defined, the IC50 is the concentration at which inhibition is half-maximal. Low values mean higher potency, high ones lower potency.

The target of experiment [1] is Cholinesterase (Equus caballus) (UniProt P81908). The experiment in a line: Inhibition of horse serum BChE at 0.1 mM using butyrylcholine chloride as substrate preincubated for 15 mins followed by substrate addition by spectrophotometric method relative to control.
Sequence of Cholinesterase (Equus caballus) (P81908 whole entry): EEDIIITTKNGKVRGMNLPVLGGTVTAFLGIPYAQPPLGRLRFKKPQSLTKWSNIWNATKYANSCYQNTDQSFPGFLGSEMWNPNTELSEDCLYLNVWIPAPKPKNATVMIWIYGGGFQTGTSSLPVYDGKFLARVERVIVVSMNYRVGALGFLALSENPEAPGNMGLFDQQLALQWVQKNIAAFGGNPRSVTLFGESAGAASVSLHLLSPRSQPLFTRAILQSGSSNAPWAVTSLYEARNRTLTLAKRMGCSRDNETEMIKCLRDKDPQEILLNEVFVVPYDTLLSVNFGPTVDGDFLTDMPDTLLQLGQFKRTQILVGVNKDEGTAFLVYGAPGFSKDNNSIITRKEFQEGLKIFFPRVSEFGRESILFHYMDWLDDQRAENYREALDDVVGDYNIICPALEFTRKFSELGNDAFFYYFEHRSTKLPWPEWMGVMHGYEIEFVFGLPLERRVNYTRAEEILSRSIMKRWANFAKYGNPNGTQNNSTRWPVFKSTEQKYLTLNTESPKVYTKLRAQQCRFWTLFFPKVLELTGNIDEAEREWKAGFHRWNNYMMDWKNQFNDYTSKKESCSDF
Another experiment addresses Cholinesterase (Equus caballus, UniProt P81908). Kind of experiment: Inhibition of horse serum BChE using butyrylcholine chloride as substrate preincubated for 15 mins followed by substrate addition by spectrophotometric method.
The nature of experiment [2]: Antioxidant activity assessed as inhibition of DPPH free radical after 30 mins. Type of experiment: functional. On the technique in general: Loss of DPPH colour is used to gauge radical scavenging.
Experiment [3] concerns the target Acetylcholinesterase (Electrophorus electricus) (UniProt O42275). The experiment in a line: Inhibition of electric eel AChE at 0.1 mM using acetylthiocholine iodide as substrate preincubated for 15 mins followed by substrate addition by spectrophotometric method relative to control.
The nature of experiment [4]: Antioxidant activity assessed as inhibition of DPPH free radical at 75 uM after 30 mins relative to control. Type of experiment: functional.
Experiment [5] can be described thus: Antioxidant activity assessed as inhibition of DPPH free radical at 50 uM after 30 mins relative to control. Format: functional.
Experiment [6] can be described thus: Antioxidant activity assessed as inhibition of DPPH free radical at 125 uM after 30 mins relative to control. Type of experiment: functional.
Experiment [7] in a line: Antioxidant activity assessed as inhibition of DPPH free radical at 100 uM after 30 mins relative to control. Type of experiment: functional.
The target in another experiment is Acetylcholinesterase (Electrophorus electricus, UniProt O42275). Kind of experiment: Inhibition of electric eel AChE using acetylthiocholine iodide as substrate preincubated for 15 mins followed by substrate addition by spectrophotometric method.
Sequence of Acetylcholinesterase (O42275 whole entry): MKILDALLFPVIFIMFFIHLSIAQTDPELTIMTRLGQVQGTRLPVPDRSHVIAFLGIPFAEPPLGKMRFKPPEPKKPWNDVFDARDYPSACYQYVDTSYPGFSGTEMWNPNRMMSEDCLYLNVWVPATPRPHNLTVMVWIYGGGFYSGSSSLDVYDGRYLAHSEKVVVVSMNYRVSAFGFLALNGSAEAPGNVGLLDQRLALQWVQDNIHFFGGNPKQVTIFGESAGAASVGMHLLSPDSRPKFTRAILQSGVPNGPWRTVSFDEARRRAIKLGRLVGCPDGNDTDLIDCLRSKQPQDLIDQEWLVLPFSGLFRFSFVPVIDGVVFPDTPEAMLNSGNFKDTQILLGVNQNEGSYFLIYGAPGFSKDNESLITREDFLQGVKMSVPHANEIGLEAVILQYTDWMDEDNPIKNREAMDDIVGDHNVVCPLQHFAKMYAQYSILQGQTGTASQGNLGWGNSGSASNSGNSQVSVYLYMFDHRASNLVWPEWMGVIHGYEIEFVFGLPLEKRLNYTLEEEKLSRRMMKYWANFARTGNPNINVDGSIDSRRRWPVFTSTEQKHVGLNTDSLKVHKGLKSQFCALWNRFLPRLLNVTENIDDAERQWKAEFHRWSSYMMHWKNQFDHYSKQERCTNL

Structures are written as SMILES.

Sequence of Cholinesterase (P81908 whole entry): as the sequence (P81908 whole entry) above
Sequence of Acetylcholinesterase (Electrophorus electricus) (O42275 24-633 limits assumed): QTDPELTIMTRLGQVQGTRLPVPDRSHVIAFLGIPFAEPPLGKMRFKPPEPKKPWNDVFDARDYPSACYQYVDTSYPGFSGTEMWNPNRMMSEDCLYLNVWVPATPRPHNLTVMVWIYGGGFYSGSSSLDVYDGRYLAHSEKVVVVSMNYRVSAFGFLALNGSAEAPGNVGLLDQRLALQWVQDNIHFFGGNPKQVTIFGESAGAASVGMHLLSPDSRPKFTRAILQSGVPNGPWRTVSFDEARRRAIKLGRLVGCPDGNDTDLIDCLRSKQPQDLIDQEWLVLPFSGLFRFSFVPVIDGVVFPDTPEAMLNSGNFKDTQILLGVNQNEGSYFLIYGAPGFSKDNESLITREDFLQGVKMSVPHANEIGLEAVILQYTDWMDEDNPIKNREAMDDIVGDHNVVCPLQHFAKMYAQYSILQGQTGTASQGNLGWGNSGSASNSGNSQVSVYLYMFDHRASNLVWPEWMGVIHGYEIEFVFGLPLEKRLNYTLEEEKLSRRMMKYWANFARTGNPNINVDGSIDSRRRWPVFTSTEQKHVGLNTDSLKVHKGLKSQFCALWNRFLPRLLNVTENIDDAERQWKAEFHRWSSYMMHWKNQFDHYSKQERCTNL

`C=C1[C@H]2C[C@H]3C4N5C[C@]6(C)CCC[C@@]47[C@@H]6[C@@]5(O)CC3([C@@H]1O)[C@@H]7C2`: the inhibition was above 50% in [1]; “Dose-dependent effect” in [2]; above 50% in experiment [3]; 25% in [4]; 17% in [5]; 41.2% in [6]. Also, the inhibition in [7] was 36%. For the same compound, the results for the IC50 at Cholinesterase and against Acetylcholinesterase were 16.2 µM and 12.8 µM, respectively.

As to `CCN1C[C@]2(C)CC[C@H](OC)[C@]34C1[C@H]([C@@H](O)[C@H]23)[C@@]1(O)CC[C@H]2C[C@@H]4[C@@H]1C(=O)O2`, the inhibition in experiment [1] is above 50%; in experiment [2], “Dose-dependent effect”; in [3], above 50%; in experiment [4], 39.3%; in experiment [5] it was 19.3%; in experiment [6], 52.4%. The inhibition in experiment [7] worked out at 47.3%. Also, the IC50 was determined as 10.4 µM on Cholinesterase and 6.5 µM against Acetylcholinesterase.

As to `C=C1CC23C[C@H]4[C@@H]5[C@@]6(C)CC[C@H](O)[C@]57C([C@@H]2[C@@H](O)[C@H]1[C@@H](O)[C@@H]37)N4C6`, the inhibition in experiment [1] is above 50%; in experiment [2], “Dose-dependent effect”; in [3], above 50%; in experiment [4], 27%; in experiment [5], 22.5%; in experiment [6], 79.6%. Also, the inhibition in experiment [7] is 60.3%. For the same compound, the results for the IC50 against Cholinesterase and against Acetylcholinesterase were 9.3 µM and 6.5 µM, respectively.

Regarding `C=C1C[C@]23C[C@@H]4[C@@H]5[C@@]6(C)CC(=O)C[C@]57C([C@@H]2[C@@H](O)[C@H]1[C@@H](O)[C@@H]37)N4C6`, the inhibition was above 50% in [1]; “Dose-dependent effect” in experiment [2]; above 50% in experiment [3]; 32% in experiment [4]; 12.1% in [5]; 65.5% in experiment [6]. The inhibition in experiment [7] is 40%. The IC50 on Cholinesterase came to 15.6 µM; on Acetylcholinesterase, 10.1 µM.

With `CCN1C[C@]2(C)CC[C@H](OC)[C@]34C1[C@@](C)([C@@H](OC)[C@H]23)[C@@]1(O)CC[C@H]2C[C@@H]4C1(O)C(=O)O2`, the inhibition in [1] was above 50%; in [2] it was “Dose-dependent effect”; in experiment [3], above 50%; in experiment [4], 28.3%; in experiment [5] it was 22.2%; in experiment [6], 38.4%. Besides, in experiment [7], the inhibition turned out to be 33.2%. Also, the IC50 against Cholinesterase came to 8.6 µM; on Acetylcholinesterase it was 5.4 µM.

In the case of `C=C1[C@H]2CC[C@@]3(C(=O)C[C@@H]4[C@@]5(C)CCC[C@@]4(CN(CCO)C5)[C@@H]3C2)[C@@H]1O`, the inhibition is above 50% in [1]; “Dose-dependent effect” in experiment [2]; above 50% in [3]; 31.2% in experiment [4]; 20% in experiment [5]; 45% in experiment [6]. The inhibition in [7] worked out at 40%. Besides, the IC50 came to 18.1 µM against Cholinesterase and 14.6 µM at Acetylcholinesterase.

Turning to `C=C1[C@H]2CC[C@@]3(CC[C@H]4[C@]5(CCC[C@]4(C)C4OCCN4C5)[C@@H]3C2)[C@@H]1O` (stereo partly specified), the inhibition in [1] is above 50%; in experiment [2] it was “Dose-dependent effect”; in experiment [3], above 50%; in [4], 23.3%; in experiment [5], 11.8%; in experiment [6] it was 60%. In addition, the inhibition in [7] is 49.4%. In addition, the IC50 against Cholinesterase worked out at 13.1 µM; against Acetylcholinesterase, 8.4 µM.

For the compound `C=C1[C@H]2CC[C@@]3(CC[C@@H]4[C@]5(C)CCC[C@]4(CN4CCO[C@@H]45)[C@@H]3C2)[C@@H]1O`, the inhibition is above 50% in experiment [1]; “Dose-dependent effect” in [2]; above 50% in experiment [3]; 30.1% in [4]; 12.3% in experiment [5]; 55.2% in [6]. Further, the inhibition in [7] came out at 42.1%. Further, the IC50 on Cholinesterase came to 14.7 µM; against Acetylcholinesterase it was 10.3 µM.

Turning to `O=C1O[C@H]([C@@H](O)CO)C(O)=C1O`, the inhibition in [4] was 85%; in experiment [5], 75%; in experiment [6], 96%; in [7], 90%.
